The text below walks through data of ChEMBL document CHEMBL1126898 (J Med Chem, 1993).

The target of this experiment is Sodium-dependent dopamine transporter (Rattus norvegicus, UniProt P23977). Description: Inhibition of [3H]WIN-35428 binding to dopamine transporter in rat striatal membranes. Format: cell membranes, Membrane.
Sequence of Sodium-dependent dopamine transporter (P23977 whole entry): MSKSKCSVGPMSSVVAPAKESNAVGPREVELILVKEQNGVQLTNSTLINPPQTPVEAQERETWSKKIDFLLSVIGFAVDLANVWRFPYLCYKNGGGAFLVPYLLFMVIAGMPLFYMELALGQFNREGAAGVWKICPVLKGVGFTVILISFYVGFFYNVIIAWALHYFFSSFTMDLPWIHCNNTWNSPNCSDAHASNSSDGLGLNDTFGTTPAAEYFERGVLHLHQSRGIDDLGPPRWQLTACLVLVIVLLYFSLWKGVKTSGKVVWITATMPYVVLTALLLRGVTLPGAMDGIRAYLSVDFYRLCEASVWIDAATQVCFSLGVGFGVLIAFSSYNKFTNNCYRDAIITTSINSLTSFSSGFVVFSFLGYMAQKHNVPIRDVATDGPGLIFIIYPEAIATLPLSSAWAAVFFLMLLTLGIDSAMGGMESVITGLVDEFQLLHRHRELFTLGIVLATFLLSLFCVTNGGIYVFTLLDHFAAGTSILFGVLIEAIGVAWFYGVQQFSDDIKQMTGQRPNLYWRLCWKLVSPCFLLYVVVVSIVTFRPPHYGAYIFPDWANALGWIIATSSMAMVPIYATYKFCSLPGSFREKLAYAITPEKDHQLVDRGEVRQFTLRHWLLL
`CN1C2CCC1C(C(=O)OCCc1ccc(N)cc1)[C@H](OC(=O)c1ccccc1)C2` (stereo not given in full) displayed an IC50 of 72 nM.
The value for `CN1C2CCC1C(C(=O)Oc1ccccc1)[C@H](OC(=O)c1ccccc1)C2` (stereo not given in full) was 112 nM.
Compound `CN1C2CCC1C(C(=O)OCCc1ccccc1)[C@H](OC(=O)c1ccccc1)C2` (stereo not given in full) yielded an IC50 of 248 nM.
Then `COC(=O)[C@H]1C2CCC(C[C@@H]1OC(=O)c1ccccc1)N2` (stereo in doubt; form 2) [PSEUDOCOCAINE], with 15800 nM; and `COC(=O)C1C2CCC(C[C@H]1OC(=O)c1ccccc1)N2Cc1ccccc1` (stereo not given in full), with 668 nM.
`CN1C2CCC1C(CO)[C@H](OC(=O)c1ccccc1)C2` (stereo not given in full): the IC50 came to 561 nM.
The value for `COC(=O)C1C2CCC(C[C@H]1OC(=O)c1ccccc1)N2` (stereo not given in full) was 303 nM; that for `COC(=O)C1C2CCC(C[C@H]1c1ccc(N)cc1)N2C` (stereo not given in full) was 25 nM.
Regarding `COC(=O)[C@H]1C2CCC(C[C@@H]1OC(=O)c1ccccc1)N2` (stereo in doubt; form 1) [PSEUDOCOCAINE], the 50% inhibitory concentration (IC50) stood at 22500 nM.
Regarding `COC(=O)C1C2CCC(C[C@H]1c1ccccc1)N2C` (stereo not given in full), the half-maximal inhibitory concentration (IC50) stood at 23 nM.

In general, IC50 refers to the concentration needed to halve the response being measured. Read a low IC50 as inhibition by little substance.
